Test system: MALME3 melanoma viability, CellTiter-Glo luminescence, 24 h
Assay: growth inhibition of MALME3 cells – cell-based, CellTiter-Glo, cherry-picked, orthogonal assay for MITF inhibitor project, dose response (AID 493191)

SMILES | AC50 [µM]
Cc1ccc(S(=O)(=O)/N=C2\C(=O)c3ccccc3C([O-])=C2n2cc[n+](CCC(C)C)c2)cc1 | 11.4
COc1ccc(C[C@H]2CN3C(=NC[C@@H]3C(C)C)N2CCNC(=O)c2ccc(C)c(Br)c2)cc1 | 27.1
O=C(Nc1nc(-c2ccccn2)cs1)c1ccc([N+](=O)[O-])o1 | 28.5
CC(=O)N(C)C1=C(N2CCOCC2)C(=O)c2ccccc2C1=O | 12.7
O=C(C#Cc1ccccc1)c1cccc([N+](=O)[O-])c1 | 10.8
O=C(Cn1ncc(Cl)c(Cl)c1=O)Nc1ccc2c(c1)OCO2 | 25.1
COc1ccc(N(Cc2cc(=O)[nH]c3ccccc23)C(=O)CCl)cc1 | 15.8
Cn1c(SCC(=O)N/N=C/c2ccc([N+](=O)[O-])s2)nnc1-c1ccccc1 | 14.7
COc1cccc(/C=N/Nc2ccc(C(=O)O)cc2)c1O | 33.2
O=C(Nc1ccccc1N1CCN(C(=O)c2ccccc2)CC1)c1ccc([N+](=O)[O-])o1 | 27.1
COc1cc(CNC2CCCC2)cc(Cl)c1OCc1ccccc1Cl | 17.6
O=C(/C=C/c1cccc([N+](=O)[O-])c1)c1cccs1 | 33.1
O=c1c(Cl)c(Cl)cnn1Cc1ccc(F)cc1 | 31.6
CCOC(=O)c1cc2sccc2n1CC(=O)N1c2ccccc2CC1C (centres undefined) | 25
Cc1ccc2nc(N(CCCN(C)C)C(=O)c3ccc4c(c3)CCCC4)sc2c1 | 21.6
CC1CCN(CC(CS(=O)(=O)c2ccc([N+](=O)[O-])cc2)N2CCC(C)CC2)CC1 (centres undefined) | 18.9
CC1(C)Cc2ccccc2C2=NNC(=O)C2=N1 | 7
O=C(N/N=C/c1ccc([N+](=O)[O-])s1)c1cccc(Br)c1 | 29.9
N=c1n(CC(=O)c2ccc(Br)s2)c2ccccc2n1Cc1ccccc1 | 24.7
Cc1scc(C(=O)N/N=C/c2ccc([N+](=O)[O-])o2)c1C | 15.7
Cc1cc(-n2c(SCC(=O)NCCC3=CCCCC3)nc3n[nH]c(C)c3c2=N)ccc1Cl | 28.6
Cc1ccc(-n2nnnc2CNC(=O)c2ccc([N+](=O)[O-])o2)cc1C | 21.5

SMILES | AC50 [µM]
CC1CCCCC1NC(=O)/C(C#N)=C/C=C/c1ccccc1[N+](=O)[O-] (centres undefined) | 27.5
Cc1ccc(NC(=O)CCl)cc1S(=O)(=O)N1CCCCCC1 | 18.1
CS(=O)(=O)c1ccc(S(=O)CC(=O)OCc2ccccc2)c([N+](=O)[O-])c1 (centres undefined) | 20
Cc1ccc(C)c(C(=O)Cn2ncc(Cl)c(Cl)c2=O)c1 | 16
O=C(Nc1ccc(F)cc1)c1nc(S(=O)(=O)Cc2ccccc2)ncc1Cl | 12
O=C(Nc1ccc(N2CCN(C(=O)c3ccc(Cl)cc3)CC2)cc1)c1ccc([N+](=O)[O-])o1 | 16.7
CC(=O)N1CCc2c(sc(NC(=O)c3ccc([N+](=O)[O-])o3)c2C#N)C1 | 9.37
CC1=C(CC(=O)c2ccccc2)C(=O)c2ccccc2C1=O | 12.7
Cc1ccc(C(=O)N/N=C/c2ccc([N+](=O)[O-])s2)cc1 | 22.6
O=C(N/N=C\c1ccc([N+](=O)[O-])s1)c1cncc(Br)c1 | 20.2
CN(C(=O)/C=C/c1ccc([N+](=O)[O-])s1)c1ccccc1 | 34.4
CCc1ccc(NC2=CC(=O)C(=O)c3ccccc32)cc1 | 6.91
O=C(Nc1ccccc1N1CCOCC1)c1ccc([N+](=O)[O-])s1 | 30.9
COc1ccc2[nH]cc(C(=O)CCl)c2c1 | 15.1
O=C(Nc1ccc(N2CCCC2)c(Cl)c1)c1ccc([N+](=O)[O-])o1 | 11.1
COc1ccc(C(=O)/C=C/C(=O)N(CC(=O)NC2CCCCC2)CC2CCCO2)c(O)c1 (centres undefined) | 4.8
N#C/C(=C(/O)c1ccc([N+](=O)[O-])o1)c1nc2ccccc2[nH]1 | 9.62
CCOc1ccc2nc(NC3=NC(c4ccc(OC)cc4)CC(=O)N3)nc(C)c2c1 (centres undefined) | 24.6
CC1(C(=O)N/N=C/c2ccc([N+](=O)[O-])o2)CC1(Br)Br (centres undefined) | 34
COc1ccccc1NS(=O)(=O)c1cccc(C(=O)N/N=C/c2ccc([N+](=O)[O-])o2)c1 | 14.6
CCN(CC)CCn1nc2c3c(cccc3c1=O)-c1ccccc1-2 | 28.4
Cc1ccc(C(O)(c2ccc(C)c(C)c2)C2CN3CCC2CC3)cc1C (centres undefined) | 22.7

SMILES | AC50 [µM]
O=C1c2cc(F)ccc2-n2c1nc1ccccc1c2=O | 4.39
O=C1/C(=N\S(=O)(=O)c2cccs2)C([n+]2ccccc2)=C([O-])c2ccccc21 | 3.81
CCn1c(/C=C/Nc2ccccc2)[n+](CC)c2cc(Cl)c(Cl)cc21 | 29.6
O=[N+]([O-])c1cccc2c(N3CCCC3)ccnc12 | 4.82
CC(=O)Nc1sc(C)c(C)c1C(=O)OCC(=O)N(CC(C)C)c1c(N)n(Cc2ccccc2)c(=O)[nH]c1=O | 6.17
COc1ccccc1NC(=O)c1nc(S(=O)(=O)Cc2ccccc2)ncc1Cl | 6.97
OC(CNCC(c1ccc(Cl)cc1Cl)c1c[nH]c2ccccc12)c1ccccc1 (centres undefined) | 19.1
Cc1ccccc1C(=O)N1CCN(c2ccc(NC(=O)c3ccc([N+](=O)[O-])o3)cc2)CC1 | 9.64
O=[N+]([O-])c1ccc(S(=O)(=O)CC(CN2CCCCC2)N2CCCCC2)cc1 (centres undefined) | 13.4
Cc1ccc2[nH]c(=O)c(CN(CCCN(C)C)C(=O)Nc3cccc(Cl)c3)cc2c1 | 24.9
N=c1n(CC(=O)c2ccc([N+](=O)[O-])cc2)c2ccccc2n1Cc1ccccc1 | 25.4
O=C(Cn1ncc(Cl)c(Cl)c1=O)c1ccc(Cl)cc1 | 26.5
C/C(=N/NC(=O)C(O)(c1ccccc1)c1ccccc1)c1ccc([N+](=O)[O-])o1 | 34.1
COc1ccc(-c2nn(-c3ccccc3)cc2/C=N/N=C(N)N)cc1OC | 21.9
CCNC1=C(Cl)C(=O)c2ccccc2C1=O | 15.3
CN(C)CC1CC/C(=C\c2ccc(O)cc2)C1=O (centres undefined) | 25.9
COc1cc(NC(=O)c2[nH]cnc2C(N)=O)cc(C(=O)Nc2cccc(C(F)(F)F)c2)c1 | 11.2
CN1CCN(c2ccccc2NC(=O)c2ccc([N+](=O)[O-])o2)CC1 | 10
CCOc1ccc(-c2ccc(SC)nn2)cc1 | 26.5
Cc1cc(C)c[n+](C2=C([O-])c3ccccc3C(=O)/C2=N\S(=O)(=O)c2cccs2)c1 | 9.5
Oc1cc(NCCN2CCOCC2)cc2cccnc12 | 24.6
CC1=NNC(=O)/C1=C\c1cn(-c2ccccc2)nc1-c1ccc(F)cc1 | 25.9

SMILES | AC50 [µM]
COc1ccc(C(CCNC(C)c2ccccc2)c2ccc(F)cc2)cc1 (centres undefined) | 16.7
Cc1cc(Br)ccc1NC(=O)CNC(=O)Cn1ncc(Cl)c(Cl)c1=O | 5.54
Cc1cc(C)cc(NC(=O)c2ccc([N+](=O)[O-])o2)c1 | 17.9
O=C1C(Cl)=C(Nc2ccccc2)C(=O)c2ccccc21 | 5.66
CCN(CC)S(=O)(=O)c1ccc(N2CCCC2)c(NC(=O)c2ccc([N+](=O)[O-])o2)c1 | 19.5
FC(F)(F)c1cc(CCN2CCNC[C@@H]2Cc2ccccc2)cc(C(F)(F)F)c1 | 19.3
Cc1cccc(NC(=O)CNC(=O)Cn2ncc(Cl)c(Cl)c2=O)c1C | 14.1
Cn1c(SC2=CS(=O)(=O)c3ccccc32)nc2ccccc21 | 19.7
CCC(=O)N1CCN(c2ccc(NC(=O)c3ccc([N+](=O)[O-])o3)cc2)CC1 | 12.7
CCCC(=O)N1CCN(c2ccc(NC(=O)c3ccc([N+](=O)[O-])o3)cc2)CC1 | 8.62
CCN(CC)CCCNC1=C(Cl)C(=O)c2ccccc2C1=O | 5.64
Cc1ccc(C(C)C)c(OCc2nn(CC(=O)c3ccc(Cl)cc3)c3[n+]2CCCCC3)c1 | 18.4
O=C(CCl)Nc1cccc(Oc2ccccc2)c1 | 28.7
CCCCN(C)CC(O)Cn1cc(/C=C/C(=O)c2cccs2)c2ccccc21 (centres undefined) | 18.6
O=C(COc1ccccc1)N/N=C/c1ccc([N+](=O)[O-])o1 | 18.6
O=C(N/N=C/c1cccc2cccnc12)c1ccccc1O | 29.7
CC(C)(c1ccccc1)c1ccc(OCC(O)CNC2CCN(Cc3ccccc3)CC2)cc1 (centres undefined) | 13.5
CC(C)(C)C(=O)Cn1ncc(Br)c(Br)c1=O | 17.7
O=C(N/N=C/c1ccc([N+](=O)[O-])o1)c1ccccc1-n1cccc1 | 32.1
O=C(CCl)Nc1cccc(S(=O)(=O)N2CCCCCC2)c1 | 17.9
CCN(CC)CCC(=O)N1C/C(=C/c2ccccc2)C(=O)/C(=C\c2ccccc2)C1 | 28.3
COCCN(CC(=O)NC1CCCCC1)C(=O)/C=C/C(=O)c1ccc(OC)cc1O | 6.68

SMILES | AC50 [µM]
COC(=O)CCS(=O)(=O)c1nc(-c2ccccc2)cc(C(F)(F)F)n1 | 14.9
CCCCCCCNC(=O)C1(CC2CC(c3ccc(Cl)cc3)=NO2)CCNCC1 (centres undefined) | 15.2
COc1ccc(CNCCC(c2ccc(F)cc2)c2ccc(OC)cc2)cc1 (centres undefined) | 22
CCOC(=O)c1nnn(-c2ccc([N+](=O)[O-])cc2[N+](=O)[O-])c1C | 16
O=C(N/N=C/c1ccc([N+](=O)[O-])s1)c1ccccc1Br | 26.9
Nc1nc2ccccc2n1/N=C/c1ccc([N+](=O)[O-])s1 | 16.3
CCN1CCN(c2ccc(S(=O)(=O)N3CCCCC3)cc2NC(=O)/C=C/c2cccc(OC)c2OC)CC1 | 29.7
COc1cc2c(cc1OC)C(c1ccccc1)N(C(=O)CCl)CC2 (centres undefined) | 18
CC1CCC(C(C)C)C(OC(=O)Cn2c(-c3ccc(Br)cc3)[n+](C)c3ccccc32)C1 (centres undefined) | 10.1
O=[N+]([O-])c1ccc(/C=N/n2cnc3ccccc32)s1 | 8.99
CC1CCC(C(C)C)C(OC(=O)C[n+]2cc(-c3ccc(Cl)cc3)n3c2CCCCC3)C1 (centres undefined) | 18
CCCC(=O)N1CCN(c2ccc(NC(=O)c3ccc([N+](=O)[O-])o3)cc2Cl)CC1 | 14.4
CC(=O)c1cccc(NC(=O)/C=C/c2ccc([N+](=O)[O-])s2)c1 | 16.8
Cc1cc(Sc2ncnc(N)c2[N+](=O)[O-])ncn1 | 34
Cc1[nH]nc2nc(SCC(=O)NCCC3=CCCCC3)n(-c3ccc(Br)cc3)c(=N)c12 | 20.5
CN(C)c1nc(C=C(C#N)C#N)c(Cl)n1-c1ccc(F)cc1 | 21.2
O=C(Cc1ccc2c(c1)OCO2)NN=Cc1ccc([N+](=O)[O-])o1 | 19.1
CC1CCCC(NCC(O)COC(c2ccc(F)cc2)c2ccc(F)cc2)C1C (centres undefined) | 20.5
COC1=C(Nc2ccc(O)cc2)C(=O)c2ccccc2C1=O | 14.3
Cc1ccc(C)c(NC(=O)/C(C#N)=C/c2cn(CC(=O)NCc3ccco3)c3ccccc23)c1 | 18.6
COc1ccc2oc(C(=O)Nc3ccc(S(=O)(=O)N(C)C4CCN(C)CC4)cc3)c(C)c2c1 | 33.5
